# According to patent publication US9314030B2, “Particulate wood preservative and method for producing same” (Koppers Performance Chemicals Inc., priority 2004, dated 2016):
# Read-outs that look alike come from different tables or passages of the source.
# Assays:
# [1] = Wet milling of chlorothalonil with 0.5-0.6 mm cerium-doped zirconium oxide beads, particle size; assay type: physicochemical
# Procedure: The laboratory-sized vertical mill was provided by CB Mills, model# L-3-J. The mill has a 2 liter capacity and is jacketed for cooling. Unless otherwise specified, ambient water was cycled through the mill cooling jacket during operation. The internal dimensions are 3.9″ diameter by 9.1″ height. The mill uses a standard 3×3″ disk agitator (mild steel) on a stainless steel shaft, and it operates at 2,620 rpm.
# The media used in this Example was 0.4-0.5 mm zirconium silicate beads supplied by CB Mills. All particle size determinations were made with a Sedigraph™ 5100T manufactured by Micromeritics, which uses x-ray detection and bases calculations of size on Stokes' Law.
# The same mill and conditions were used in this experiment as in experiment 1. However, the grinding media was 0.5-0.6 mm cerium-doped zirconium oxide beads obtained from CB Mills. The density of the cerium doped zirconium oxide is ˜6.0 g/cm^3. […] The total batch weight was about 600 g.
# [2] = treated wood; cited from earlier work
# [3] = 0.4-0.5 mm zirconium silicate, milling time 0 min
# [4] = 0.4-0.5 mm zirconium silicate, milling time 30 min
# [5] = 0.4-0.5 mm zirconium silicate, milling time 60 min
# [6] = 0.4-0.5 mm zirconium silicate, milling time 90 min
# [7] = 0.4-0.5 mm zirconium silicate, milling time 120 min
# [8] = 0.4-0.5 mm zirconium silicate, milling time 150 min
# [9] = 0.4-0.5 mm zirconium silicate, milling time 180 min
# [10] = 0.4-0.5 mm zirconium silicate, milling time 270 min
# [11] = 0.4-0.5 mm zirconium silicate, milling time 450 min
# [12] = 0.5-0.6 mm cerium-doped zirconium oxide, milling time 0 min
# [13] = 0.5-0.6 mm cerium-doped zirconium oxide, milling time 90 min
# [14] = 0.5-0.6 mm cerium-doped zirconium oxide, milling time 240 min
# [15] = 0.5 mm zirconia milling media, in 90 minutes
# [16] = 0.5 mm zirconia milling media, in 6 hours
molecule,measurement,setting,value
N#Cc1c(Cl)c(Cl)c(Cl)c(C#N)c1Cl [chlorothalonil],d90,"0.4-0.5 mm zirconium silicate, at 60 minutes",about 2 microns
same,Particle Size Data-Volume % With Diamter Greater Than 2 μm,[3],95 Volume %
same,Particle Size Data-Volume % With Diamter Greater Than 5 μm,[3],48 Volume %
same,Particle Size Data-Volume % With Diamter Greater Than 10 μm,[3],10 Volume %
same,d50,[3],4.9 μm
same,Particle Size Data-Volume % With Diamter Greater Than 1 μm,[4],68 Volume %
same,Particle Size Data-Volume % With Diamter Greater Than 2 μm,[4],21 Volume %
same,Particle Size Data-Volume % With Diamter Greater Than 5 μm,[4],4 Volume %
same,Particle Size Data-Volume % With Diamter Greater Than 10 μm,[4],0 Volume %
same,d50,[4],1.3 μm
same,Particle Size Data-Volume % With Diamter Greater Than 1 μm,[5],50 Volume %
same,Particle Size Data-Volume % With Diamter Greater Than 2 μm,[5],11 Volume %
same,Particle Size Data-Volume % With Diamter Greater Than 5 μm,[5],2 Volume %
same,Particle Size Data-Volume % With Diamter Greater Than 10 μm,[5],4 Volume %
same,d50,[5],1.0 μm
same,Particle Size Data-Volume % With Diamter Greater Than 1 μm,[6],94 Volume %
same,Particle Size Data-Volume % With Diamter Greater Than 2 μm,[6],22 Volume %
same,Particle Size Data-Volume % With Diamter Greater Than 5 μm,[6],23 Volume %
same,Particle Size Data-Volume % With Diamter Greater Than 10 μm,[6],18 Volume %
same,d50,[6],1.4 μm
same,Particle Size Data-Volume % With Diamter Greater Than 2 μm,[7],4 Volume %
same,Particle Size Data-Volume % With Diamter Greater Than 5 μm,[7],0 Volume %
same,Particle Size Data-Volume % With Diamter Greater Than 10 μm,[7],2 Volume %
same,Particle Size Data-Volume % With Diamter Greater Than 1 μm,[8],58 Volume %
same,Particle Size Data-Volume % With Diamter Greater Than 2 μm,[8],6 Volume %
same,Particle Size Data-Volume % With Diamter Greater Than 5 μm,[8],2 Volume %
same,Particle Size Data-Volume % With Diamter Greater Than 10 μm,[8],0 Volume %
same,Particle Size Data-Volume % With Diamter Greater Than 1 μm,[9],53 Volume %
same,Particle Size Data-Volume % With Diamter Greater Than 2 μm,[9],7 Volume %
same,Particle Size Data-Volume % With Diamter Greater Than 5 μm,[9],2 Volume %
same,Particle Size Data-Volume % With Diamter Greater Than 10 μm,[9],2 Volume %
same,Particle Size Data-Volume % With Diamter Greater Than 1 μm,[10],54 Volume %
same,Particle Size Data-Volume % With Diamter Greater Than 2 μm,[10],8 Volume %
same,Particle Size Data-Volume % With Diamter Greater Than 5 μm,[10],0 Volume %
same,Particle Size Data-Volume % With Diamter Greater Than 10 μm,[10],2 Volume %
same,Particle Size Data-Volume % With Diamter Greater Than 1 μm,[11],56 Volume %
same,Particle Size Data-Volume % With Diamter Greater Than 2 μm,[11],21 Volume %
same,Particle Size Data-Volume % With Diamter Greater Than 5 μm,[11],8 Volume %
same,Particle Size Data-Volume % With Diamter Greater Than 10 μm,[11],12 Volume %
same,d50,"0.4-0.5 mm zirconium silicate, within about one hour",~1 micron
same,starting particle size,before wet milling,3-4 microns
same,Particle Size Data-Volume % With Diamter Greater Than 1 μm,[1]; [12],92 Volume %
same,Particle Size Data-Volume % With Diamter Greater Than 2 μm,[1]; [12],77 Volume %
same,Particle Size Data-Volume % With Diamter Greater Than 5 μm,[1]; [12],30 Volume %
same,Particle Size Data-Volume % With Diamter Greater Than 10 μm,[1]; [12],8 Volume %
same,Particle Size Data-Volume % With Diamter Greater Than 0.4 μm,[1]; [13],22 Volume %
same,Particle Size Data-Volume % With Diamter Greater Than 1 μm,[1]; [13],3 Volume %
same,Particle Size Data-Volume % With Diamter Greater Than 2 μm,[1]; [13],3 Volume %
same,Particle Size Data-Volume % With Diamter Greater Than 5 μm,[1]; [13],3 Volume %
same,Particle Size Data-Volume % With Diamter Greater Than 10 μm,[1]; [13],3 Volume %
same,d50,[1]; [13],0.31 μm
same,Particle Size Data-Volume % With Diamter Greater Than 0.2 μm,[1]; [14],51 Volume %
same,Particle Size Data-Volume % With Diamter Greater Than 0.4 μm,[1]; [14],3 Volume %
same,Particle Size Data-Volume % With Diamter Greater Than 1 μm,[1]; [14],3 Volume %
same,Particle Size Data-Volume % With Diamter Greater Than 2 μm,[1]; [14],2 Volume %
same,Particle Size Data-Volume % With Diamter Greater Than 5 μm,[1]; [14],1 Volume %
same,Particle Size Data-Volume % With Diamter Greater Than 10 μm,[1]; [14],0 Volume %
same,d50,[1]; [14],0.21 μm
same,d50,[1]; [15],less than 1 micron
same,d95,[1]; [15],less than 1 micron
same,d50,[1]; [16],less than 0.3 microns
same,d95,[1]; [16],less than 0.4 microns
copper citrate,copper in leachate relative to CCA baseline,[2],over fifteen times the baseline concentration
